Data on 1 compound can be found in article PMC3509269 (The Analyst, 2012).

The data set concerns Calf thymus DNA. The class given is biochemical. Conditions: 0.2 mM, negative control, under the assay conditions (Fig. S8).

For `C1CCOC1` [THF], the “SWV peak increases (DNA damage signal)” value is on record as “did not show SWV peak increases”.
